Values of other authors, collected in patent US20240293347A1, “COMPOSITION AND METHODS OF TREATMENT USING TRANSDERMAL HORMONE SUPPLEMENTATION” (Xygenyx Inc., priority 2023, published 2024).

Columns and labels:
[1] = in the human body
[2] = used as penetration enhancer for transdermal drugs

Row | Molecule | biological half-life [1] | increase of drug uptake via the transdermal route (factor) [2]
1 | HGH: hormone comprising a peptide chain that is synthesized in the pituitary gland | 10-20 minutes | 
2 | CC12CCC(CC1)C(C)(C)O2 [eucalyptol, 1,8-epoxy-p-menthane] |  | more than 10
3 | CC(C)[C@@H]1CC[C@@H](C)C[C@H]1O [Menthol] |  | ≥ 10
